Results as given in US10035816B2, “Compound for treating respiratory syncytial virus infection and preparation method and use thereof” (SHANDONG UNIVERSITY, priority 2016, dated 2018).

Experiments:
Format in all cases: cell-based
[1] = tested on: Smo-dependent SAG induced gene expression (Hh signal pathway); test: Hedgehog (Hh) signal pathway inhibition assay, Gli-binding site-luciferase reporter in NIH3T3 cells; conditions: compound 10 uM, SAG 0.5 ìM, control (compound-free, presence of SAG) = 100% gene expression (FIG. 5)
Description: The detection procedure of compound effect on Hh signal pathway inhibiting is as following. NIH3T3 cells are seeded cells in 6 well plates, or 12 well plate one day in advance, with 5% FBS DMEM, without antibiotics per well so that they will be 90˜95% confluent at the time of transfection. Plasmids are diluted with Lipofectamine 2000 (total volume is 100-1000 ìl) and added to each well containing cells and medium, followed by incubation at 37° C. in a CO2 incubator for 48 h. […] At the end of the incubation, cells are washed, lysed and lysate transferred to a 96-well white plate. LAR II reagent is added (from Promega, Dual-luciferase reporter assay system) and samples read in a luminescence reader.
The control (compound-free, presence of SAG) is scored at 100% gene expression.

[2] = tested on: Human respiratory syncytial virus Long strain; test: RSV replication assay (virus yield / focus titration in HEp-2 cells); conditions: for maximum inhibition effect on RSV replication: compounds tested at 2 ìM and 8 ìM, HEp-2 cells, MOI 0.1, compared with blank control (FIG. 4)
Description: The detection procedure of compound effect on RSV replication inhibiting is as following. Human respiratory syncytial virus Long strain and HEp-2 cells were used for infection assays. Cells were maintained in DMEM, supplemented with penicillin/streptomycin and 10% FBS, and incubated at 37° C., 5% CO2. Virus was passaged in HEp-2 cells in the same conditions, but with 2% FBS. Virus stocks were prepared by infecting confluent HEp-2 cells at a low multiplicity of infection (MOI) of 0.1 for two to three days. Cells and virus-containing supernatant were then subjected to a single freeze/thaw cycle at −80° C. to release cell-bound virus, and the sample was clarified by centrifugation at 2000×g for 10 min at 4° C. The supernatant was homogenized, aliquoted and stored at −20° C.
Compounds were tested either during virus adsorption for 1 h at 4° C. to investigate viral entry, post-adsorption for 72 h at 37° C. to investigate viral propagation and replication, or during all stages of infection. The concentration of compound resulting in 50% inhibition (IC50) of virus replication was determined by focus counting (viral entry) or focus size measurement (viral propagation) and was determined using non-linear regression analysis using GraphPad Prism. To assess the cytotoxicity of compounds, a CellTiter-Glo Luminescent Cell Viability Assay was carried following the manufacturer's instruction in the conditions of the focus reduction assay.
As shown in the figure, compounds were tested at 2 concentrations (2 ìM, 8 ìM) in the RSV replication assay. The control (compound-free) is scored at 100% replication.
Human respiratory syncytial virus Long strain (ATCC reference VR-26) and HEp-2 cells (ATCC reference CCL-23) were used for infection assays. Cells were maintained in DMEM, supplemented with penicillin/streptomycin and 10% FBS, and incubated at 37° C., 5% CO2. Virus was passaged in HEp-2 cells in the same conditions, but with 2% FBS. Virus stocks were prepared by infecting confluent HEp-2 cells at a low multiplicity of infection (MOI) of 0.1 for two to three days. […]

[3] = tested on: RSV replication and Hh activity; test: Coefficient of inhibition (ICrh): RSV replication inhibition vs. Hh pathway inhibition relative to CPM; conditions: ratio of RSV inhibition to Hh inhibition of the analog divided by the same ratio of CPM; >1 favorable (FIG. 6)
Description: To assess the differential Hh pathway inhibition vs. replication inhibition of analogs (cpd), we determined a coefficient of inhibition (ICrh).
A score higher than 1 indicates a favorable profile.
The substep of screening compounds is that selecting the compounds with ICrh data larger than 1, and filtering out the compounds with ICrh data smaller than 1. Furthermore, the compounds with larger ICrh data will be selected preferentially.

| Molecule | inhibition of SAG-induced gene expression [1] [%] | RSV replication in the presence of compound ([2]; compound-free control scored at 100% replication (FIG. 4)) [%] | maximum inhibition effect on RSV replication [2] [%] | coefficient of inhibition on RSV replication and Hh activity (ICrh) [3] |
| --- | --- | --- | --- | --- |
| cyclopamine [CPM, reference compound] | 56 | 0 |  |  |
| CC1=C2C[C@H]3[C@@H](CC=C4C[C@@H](OC(=O)NC5CC5)CC[C@@]43C)[C@@H]2CC[C@]12O[C@@H]1C[C@H](C)CN(C(=O)C(F)(F)F)[C@H]1[C@H]2C [S1-4] | 5 |  | 88 | 1.617 |
| CCNC(=O)O[C@H]1CC[C@@]2(C)C(=CC[C@H]3[C@@H]4CC[C@]5(O[C@@H]6C[C@H](C)CN(C(=O)C(F)(F)F)[C@H]6[C@H]5C)C(C)=C4C[C@@H]32)C1 [S1-2] | 36 |  | 99 | 1.446 |
